From patent US7709538B2 (Sagittarius Life Science Corp., priority 2004, dated 2010)
Several values for one entry are separate records, joined by “and”; a condition that tells them apart may be missing. Equal values may be shown once. Entries after “also recorded” stand apart in the source; their conditions may differ. Marks after values point to notes of the source that are not given here.

Legend:
[1] = tested on: bFGF-induced angiogenesis in rat corneas; assay: Corneal angiogenesis, implanted hydron pellets; type: in vivo; conditions: pellets with bFGF 100 ng, alone or plus ST104P 500 ng, day 7
Protocol: FIG. 8. […] The asterisk represents the place of hydron pellet implantation. (B) The neovascularization in rat corneas after implantation bFGF hydron pellets or pellets containing bFGF and ST104P. The length (panel a) and area (panel b) of neovascularized vessels in rat corneas were measured after implantation for 3-7 days. Data are means±SEM (n=8 per group). *P<0.01.
(§1) All rats were handled in accordance with the Association for Research in Vision and Ophthalmology Resolution on the Use of Animals in Research. Male Sprague-Dawley rats (300-350 g, Animal Center, National Science Counsel, Taipei, Taiwan) were used in this study. All surgical procedures were performed using sterile techniques. The rats were placed under anesthesia with 3% isoflurane in an O2/room air mixture (1:1). Additional topical anesthesia (0.4% benoxinate hydrochloride, Ciba Vision Ltd., Hettlingen, Switzerland) was applied to the corneal surface. The eyes were exposed by grasping the temporal limboconjunctiva using a jeweler's forceps and the central-peripheral corneal intrastromal lamellar pocket (0.6×1.5×1 mm for depth×length×width) was dissected with a surgical blade (Paragon no. 11; Maersk Medical LTD, Sheffield, England). The pockets were extended 1.5 to 2 mm away from the limbus. The pellet was grasped by smooth forceps from the refrigerator (−20° C.) and immediately implanted into the corneal stromal pocket in each eye. Topical antibiotic ointment (0.3% gentamycin; Alcon Cusi, Spain) was applied to the corneal surface to reduce irritation and prevent infection.
Implanting Hydron Pellets
(§2) Biomicroscopic Examination
(§3) Examinations were made with a dissecting microscope and results were photographed on days 3, 5 and 7. Under anesthesia, the maximum vessel length and width of the neovascularization in rat eyes were measured and calibrated using a microscale (Nikon, Tokyo, Japan). The area of neovascularization of the cornea was determined from the dimensions of the triangular growth pattern of the vessels. Photographs of the corneal angiogenesis assay were obtained and digitized in a 640×480 pixel matrix, using a digital camera CoolPix 995 (Nikon, Tokyo, Japan). The operator was blinded to experimental design. Areas containing blood vessels were traced on the computer monitor and calculated with image analysis software (Scion Image 4.02; Scion, Maryland, USA) and reported in square millimeters with determinations. The biomicroscopic assessment was conducted by two independent observers.
(§4) To analyze the differences between groups, Mann-Whitney U test analysis with two-tailed probability was used and a P value of less than 0.05 was considered significant. Results are presented as means±SEM (standard error of the mean). For each experiment, surgery was performed on all animals in a standardized fashion, and animals were randomized to the different treatment and control groups.

[2] = tested on: secretion of MMP-2 by endothelial cells; assay: MMPs gelatin zymography of conditioned media of endothelial cells; type: cell-based; conditions: endothelial cells (BAEC, EA.hy926), even at dose as low as 10 μg/ml, 24 h
Protocol: (§5) Matrix Metalloproteinases (MMPs) Zymography
(§6) Secretion of MMPs by endothelial cells was assessed by 0.1% gelatin-SDS-PAGE zymography. Briefly, endothelial cells near 80% confluence were washed twice with serum-free media and treated with various doses of vasostatin for 24-48 h. Conditioned media were collected and assayed for protein concentration by Bradford assay. Aliquots of conditioned media were subjected to separation with 10% SDS-PAGE containing 0.1% type A gelatin (Sigma; St. Louis, Mo.). After electrophoresis, gel was washed twice with 2.5% Triton X-100, incubated in buffer containing 40 mM Tris-HCl, pH […], 0.01% sodium azide at 37° C. for 12-24 h, stained with 0.25% Coomassie Blue R-250 in 50% methanol and 10% acetic acid for 1 h, and destained with 10% acetic acid, 20% methanol. The gelatinolytic regions by MMPs were visualized as white bands in blue background.

[3] = tested on: secretion of MMP-9 by endothelial cells; assay: as above; type: cell-based; conditions: endothelial cells (BAEC, EA.hy926), even at dose as low as 10 μg/ml, 24 h
Protocol: as §5, §6

[4] = tested on: BAEC, HUVEC, EA.hy926 cells, 3T3 cells, GH3 cells, C6 cells, HepG2 cells, SK-Hep-1 cells, MDCK cells; assay: Morphological analysis of endothelial and non-endothelial cells; type: cell-based; conditions: all types of cells tested; data not shown
Text: (§7) FIG. 1. […] The pictures were taken at 400× magnification. […] Each data represent mean±SD of quadruplicate experiments. Asterisks indicated statistic significance versus control (P<0.001).

Lewis lung carcinoma = assay: Treatment of Lewis lung carcinoma in mice; type: in vivo
Protocol: FIG. 6. […] The subcutaneous dorsa of mice were implanted with Lewis lung carcinomas. […] Each point represents mean±SEM for ten mice.
FIG. 7. […] The subcutaneous dorsa of mice were implanted with Lewis lung carcinomas. […] Each point represents mean±SEM for ten mice.
Animal study was carried out in the animal facility of Kaohsiung Veterans General Hospital in accordance with institutional guidelines. Male C57BL/6J mice (6- to 8-week-old; Animal Center of National Cheng Kung University, Taiwan) were used. Mice were acclimated and caged in groups of four or less. All mice were fed with a diet of animal chow and water ad libitum. Animals were anesthetized in a methoxyflurane chamber prior to all procedures and were observed until fully recovered. Animals were sacrificed by a lethal dose of methoxyflurane.
Treatment of Lewis Lung Carcinoma
C57BL/6J mice were implanted with Lewis lung carcinomas cells using the techniques described previously (O'Reilly et al., Cell 88, 277-285, 1997). Briefly, the LL2 Lewis lung carcinoma cells were resuspended in PBS at the concentration of 2.5×10^6 cells per ml and injected into C57B16/J mice (n=20) with 0.1 ml of the cell suspension to induce tumor. Tumors were measured with a dial-caliper and volumes were determined using the formula width^2×length×0.52. […] In addition, the survival rate of mice in different groups was recorded and analyzed by Kaplan-Mier Survival analysis.

[5] = tested on: bFGF-induced corneal angiogenesis; assay: Corneal angiogenesis, topical application of eye drops; type: in vivo
Protocol: FIG. 9. […] (A) Representative photographs of basic fibroblast growth factor (bFGF)-implanted corneas after topical application of control (phosphate buffered saline, PBS) eye drop (left panel) and ST104P-containing eye drop (50 μg/ml, middle panel; 100 μg/ml, right panel) for 7 days. The asterisk represents the place of hydron pellet implantation. […] Data represent mean±SEM (n=8 per group).
FIG. 10. Histological analysis of basic fibroblast growth factor (bFGF)-implanted rat cornea after ST104P eye drop treatment. After eye drop treatment for 7 days, the bFGF-implanted rat corneas were harvested and stained with hematoxylin and eosin (200×). […] Neocapillaries (arrowheads) are prominent in the corneal stroma.
as §1
Topical Application of ST104P
as §2, §3
After treatment, the rat corneas were dissected and fixed in […]. The […]-embedded tissues were sectioned in 5-μm slices, mounted on poly-L-lysine-coated slides and subjected to hematoxylin and eosin staining.
as §4

[6] = tested on: bFGF-induced angiogenesis in rat corneas; assay: Corneal angiogenesis, implanted hydron pellets; type: in vivo; conditions: for Area (mm^2) of neovascularization / Length (mm) of new vessels: day 7
[7] = Tolerability in animals via various routes (data not shown); type: in vivo; conditions: oral or intravenous, intraperitoneal, and intratumor injection
[8] = tested on: neovascularization in chicken embryos (CAM); assay: Chorioallantoic membrane (CAM) assay
Protocol: The angiogenesis profiles on CAMs were recorded under dissection microscope.
Chorioallantoic Membrane (CAM) Assay
Briefly, fertilized White Leghorn chicken eggs were purchased from Taiwan Provincial Research Institute for Animal Health (Hsin-Chu, Taiwan) and incubated at 37° C. with 60% humidity. On day 3, a square window was opened in the shell, and 2 to 3 ml of albumen was removed to allow detachment of the developing CAM. The window was sealed with a glass, and the eggs were returned to the incubator. […] The CAMs were examined daily until day 10-12, when the angiogenic response peaks, and photographed in ovo with a stereomicroscope equipped with Zeiss MC63 camera system (Zeiss, Oberkochen, Germany). The experiments were carried out using 10 eggs per group.

Water solubility = type: physicochemical
EA.hy926 cells = assay: Tube formation assay in Matrigel; type: cell-based, Human; conditions: ST104P 20-100 μg/ml
different types of cells = assay: Cell proliferation assay, different types of cells; type: cell-based; conditions: dose-dependent, 10-500 μg/ml, 48 h
Text: as §7

BAEC [9] = conditions: incubation 6 h, bFGF 100 ng/ml
Protocol: (§8) FIG. 2. […] After trypsinization, endothelial cells were applied to top wells in Boyden chamber to initiated migration toward chemoattractant bFGF (100 ng/ml) in the bottom wells. The migrated cells on filter were stained and counted. Each point represents mean±SEM of triplicate experiments.
(§9) The compartments were separated by a polycarbonate filter (8-μm pore size; Nucleopore, Costar, Cambridge, Mass.) coated with 0.005% gelatin to allow cell adhesion. After incubation for 2-4 h in a humidified 5% CO2 atmosphere at 37° C., cells on the upper side of the filter were removed, and those that had migrated to the lower side were fixed in absolute ethanol, stained with 10% Giemsa solution (Merck, Germany), and counted as a mean±SD per filter under five different high power fields.

EA.hy926 = conditions: EA.hy926, incubation 6 h, bFGF 100 ng/ml
Protocol: as §8, §9

BAEC [10] = assay: Tube formation assay in Matrigel; type: cell-based, Bovine; conditions: ST104P 20-100 μg/ml
Protocol: FIG. 3. ST104P abolished the tube formation of endothelial cells. […] Endothelial cells were applied to Matrigel-coated plate in the absence or presence of ST104P. After 8 h, the tubular structures of BAEC cells were monitored and recorded under light microscopy. The pictures were taken at 400× magnification.
Matrigel (Becton Dickinson; Bedford, Mass.) was diluted with cold serum-free medium to 10 mg/ml. Two hundred μl of the diluted solution were added to each well in 24-well plate and allowed to form a gel at 37° C. for 30 min. […] Two hundred μl of the cell suspension (3×10^4 cells) were then subsequently added to each well and incubated for 6-8 h at 37° C. in 5% CO2. Under these conditions endothelial cells form delicate networks of tubes that are detectable within 2-3 h and are fully developed after 8-12 h.

[11] = ST104P 500 ng pellet without bFGF
[12] = ST104P 1000 ng pellet without bFGF

bFGF: Recombinant basic fibroblast growth factor, used as chemoattractant and as inducer of corneal angiogenesis in hydron pellets [reference compound]
Area (mm^2) of neovascularization [1]: 1.42±0.28 mm^2 | Length (mm) of new vessels [1]: 1.36±0.4 mm and 1.36 ± 0.40 mm

tetrameric cyclic compound of 4,5-dihydroxynaphthalene-2, 7, disulfonic acid linked by methylene bridges [ST104P]
secretion of MMP-2 [2]: potently inhibited | secretion of MMP-9 [3]: potently inhibited | cytotoxicity by morphological analysis [4]: not very toxic | weight loss or adverse effects in treated mice (Lewis lung carcinoma; ST104P 100 μg injection): no evident weight loss or adverse effects | decrease of tumor size versus saline-treated group (Lewis lung carcinoma; ST104P 100 μg injection, four times): ~40% | average tumor size (Lewis lung carcinoma; ST104P 100 μg injection, four times, saline group 4876±670, P<0.05): 2620±320 mm^3 | survival of tumor-bearing mice (Lewis lung carcinoma; ST104P 100 μg, versus vehicle, Kaplan-Meier): significantly enhanced the survival rates; also recorded: survived significantly longer | average vessel length ([5]; ST104P eye drop 100 μg/ml three times daily, day 7, PBS eye drop 1.36±0.4, P<0.01): 0.39±0.15 mm | neovascularized area ([5]; ST104P eye drop 100 μg/ml three times daily, day 7, PBS eye drop 1.42±0.28, P<0.01): 0.28±0.19 mm^2 | effect on bFGF-induced cornea angiogenesis ([5]; ST104P eye drop 10-20 μg/ml): did not elicit inhibitory effect | neovascularization by histological analysis ([5]; ST104P eye drops 50 and 100 μg/ml, 7 days, hematoxylin and eosin): no significant neovascularization | toxicity to the cornea / other eye cells by histological analysis ([5]; ST104P eye drops, 7 days): appears normal histologically without apparent adverse effects; also recorded: without overt cytotoxicity | Area (mm^2) of neovascularization [6, 11]: 0 mm^2 | Length (mm) of new vessels [6, 11]: 0 mm | Area (mm^2) of neovascularization [6, 12]: 0 mm^2 | Length (mm) of new vessels [6, 12]: 0 mm | induction of neovascularization by pellets without bFGF ([6]; ST104P pellets alone in rat corneas): did not induce neovascularization | tolerability in animals [7]: well tolerated | inhibition of angiogenesis in CAM ([8]; 50 μg per CAM, 8-day old chick embryos): 50% | mortality of chick embryos ([8]; 200 μg per CAM, 9 out of 10 died): 90% | Area (mm^2) of neovascularization ([1]; listed as bFGF + ST104P): 0.12 ± 0.11* mm^2 | Length (mm) of new vessels ([1]; listed as bFGF + ST104P): 0.17 ± 0.06* mm | Area (mm^2) of neovascularization ([1]; listed as bFGF plus ST104P): 0.12±0.11 mm^2 | Length (mm) of new vessels ([1]; listed as bFGF plus ST104P): 0.17±0.06 mm | water solubility (Water solubility): excellent water solubility | vessel-like (tube) structure in Matrigel (EA.hy926 cells): effectively abolished | proliferation in different types of cells (different types of cells): moderately inhibited the proliferation | IC50, migration toward chemoattractant bFGF (BAEC [9]): 100 µg/mL | IC50, migration toward chemoattractant bFGF (EA.hy926): 100 µg/mL | vessel-like (tube) structure in Matrigel (BAEC [10]): effectively abolished
